Source: patent US11358969B2, “Indole AHR inhibitors and uses thereof” (Ikena Oncology, Inc., priority 2017, dated 2022)

biological target: T1, AHR (UniProt P35869); experiment: DRE-Luciferase Reporter Assay (Alternate Method) (Example 1B); format: cell-based, murine or human; details: cell line and AHR activating ligand not specified
T1 construct: IC50
T1 sequence (P35869 1-848): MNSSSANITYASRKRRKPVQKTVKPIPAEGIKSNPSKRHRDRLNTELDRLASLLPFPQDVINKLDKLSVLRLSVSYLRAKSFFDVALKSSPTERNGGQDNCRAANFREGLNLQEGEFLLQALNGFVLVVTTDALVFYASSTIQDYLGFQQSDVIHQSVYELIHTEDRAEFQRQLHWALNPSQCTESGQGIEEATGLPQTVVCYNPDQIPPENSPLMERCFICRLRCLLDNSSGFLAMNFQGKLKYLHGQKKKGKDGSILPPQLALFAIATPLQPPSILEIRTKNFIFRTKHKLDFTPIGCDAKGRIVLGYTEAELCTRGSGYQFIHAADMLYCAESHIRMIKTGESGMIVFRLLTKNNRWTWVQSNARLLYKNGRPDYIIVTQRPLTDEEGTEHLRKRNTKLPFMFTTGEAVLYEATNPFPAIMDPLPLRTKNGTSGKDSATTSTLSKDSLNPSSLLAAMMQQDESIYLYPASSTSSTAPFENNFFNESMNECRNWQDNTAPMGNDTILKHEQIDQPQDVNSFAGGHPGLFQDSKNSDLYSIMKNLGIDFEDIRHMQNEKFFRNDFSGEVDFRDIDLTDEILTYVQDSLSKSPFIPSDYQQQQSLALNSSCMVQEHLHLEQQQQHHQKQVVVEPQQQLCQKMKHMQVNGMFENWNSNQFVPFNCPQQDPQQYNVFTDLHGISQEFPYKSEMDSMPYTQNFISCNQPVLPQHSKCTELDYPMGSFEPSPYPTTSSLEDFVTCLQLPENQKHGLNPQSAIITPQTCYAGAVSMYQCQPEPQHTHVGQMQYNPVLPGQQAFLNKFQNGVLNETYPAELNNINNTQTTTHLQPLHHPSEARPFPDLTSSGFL
Method: AHR binds to Dioxin Responsive Elements (DRE) upstream of genes that it activates. One measure of AHR activity is activation of a reporter gene, such as luciferase, downstream of one or multiple DRE elements. Luciferase activity will reflect activation and inhibition of AHR in the cells expressing his reporter.
Murine Hepa1-6 or Hepa-1c1c7 or other murine cell line with a DRE-luciferase reporter either stably or transiently transfected were plated in media in plates (96-well, 384-well or other plates) and incubated overnight at 37° C. in a CO2 incubator or compound and agonist were added at the time of plating. Likewise, human HepG2 or other human cell line with a DRE-luciferase reporter either stably or transiently transfected were plated in media in plates (96-well, 384-well or other plates) and incubated overnight at 37° C. in a CO2 incubator or compound and agonist were added at the time of plating.
At the time that cells are plated or following incubation overnight, an AHR activating ligand, such as TCDD, kynurenine, ITE (2-(1H-indole-3-ylcarbonyl)-4-thiazolecarboxylic methyl ester), VAF347, BNF (beta-naphthoflavone), FICZ (6-formylindolo(3,2-b) carbazole or other AHR ligands, was added with or without AHR antagonist.
Cells were incubated for 4, 15 or 24 hours or another time point and then lysed for determination of luciferase activity as a read-out of the AHR activation or inhibition. Luciferase was measured with a commercial kit such as the Promega Luciferase kit or any kit or reagents that provide the luciferin substrate for measuring luciferase activity. The level of luciferase with only activating ligand added was the maximum signal while the luciferase with no ligand was the minimum signal. IC50 values were determined as the concentration which inhibits half of the luciferase activity.

Row | IC50 [µM] | Compound
1 | > 1.5 | CC(C)c1cnn2c(N[C@H]3CCc4cn[nH]c4C3)cc(-c3cncc(F)c3)nc12 (single isomer, unassigned) [I-32a]
2 | > 1.5 | CC(C)c1cnn2c(N[C@H]3Cc4ccc(O)cc4C3)cc(-c3cncc(C#N)c3)nc12 (single isomer, unassigned) [I-37a]
3 | > 1.5 | CC(C)c1cnn2c(N[C@H]3CCc4[nH]ncc4C3)cc(-c3cncc(F)c3)nc12 (single isomer, unassigned) [I-42a]
4 | > 1.5 | CC(C)c1cnn2c(NC3CCc4cc(O)ccc4C3)cc(-c3cncc(F)c3)nc12 (stereo in doubt) [I-82b, (2R)-2-[[5-(5-fluoro-3-pyridyl)-3-isopropyl-pyrazolo[1,5-a]pyrimidin-7-yl]amino]tetralin-6-ol]
5 | 1 to 1.5 | CC(C)c1cnn2c(NC3Cc4[nH]c5ccccc5c4C3)nc(-c3cncc(F)c3)nc12 (stereo in doubt) [I-263a, (2S)—N-[2-(5-Fluoro-3-pyridyl)-8-isopropyl-pyrazolo[1,5-a][1,3,5]triazin-4-yl]-1,2,3,4-tetrahydrocyclopenta[b]indol-2-amine]
6 | > 1.5 | CC(C)n1cnc2c(NCCc3c[nH]c4ccncc34)nc(-c3cncc(F)c3)nc21 [I-8, 2-(5-Fluoro-3-pyridyl)-9-isopropyl-N-[2-(1H-pyrrolo[3,2-c]pyridin-3-yl)ethyl]purin-6-amine]
7 | > 1.5 | CC(C)n1cnc2c(NCCn3c(=O)[nH]c4ccccc43)nc(-c3cncc(F)c3)nc21 [I-10, 3-[2-[[2-(5-Fluoro-3-pyridyl)-9-isopropyl-purin-6-yl]amino]ethyl]-1H-benzimidazol-2-one]
8 | < 0.5 | Cc1[nH]c2c(F)cc(F)cc2c1CCNc1nc(-c2cncc(F)c2)nc2c1ncn2C(C)C [I-11, N-(2-(5,7-Difluoro-2-methyl-1H-indol-3-yl)ethyl)-2-(5-fluoropyridin-3-yl)-9-isopropyl-9H-purin-6-amine]
9 | > 1.5 | CC(C)n1cnc2c(NCCn3cnc4ccccc43)nc(-c3cncc(F)c3)nc21 [I-13, N-(2-(1H-Benzo[d]imidazol-1-yl)ethyl)-2-(5-fluoropyridin-3-yl)-9-isopropyl-9H-purin-6-amine]
10 | > 1.5 | CC(C)n1cnc2c(NCCc3cn(C)c4ccccc34)nc(-c3cncc(F)c3)nc21 [I-14, 2-(5-Fluoropyridin-3-yl)-9-isopropyl-N-(2-(1-methyl-1H-indol-3-yl)ethyl)-9H-purin-6-amine]
11 | < 0.5 | CC(C)n1cnc2c(NCCc3cnc4ccccn34)nc(-c3cncc(F)c3)nc21 [I-15, 2-(5-Fluoro-3-pyridyl)-N-(2-imidazo[1,2-a]pyridin-3-ylethyl)-9-isopropyl-purin-6-amine]
12 | < 0.5 | CC(C)Nc1cc(NCCc2c[nH]c3ccccc23)nc(-c2cncc(F)c2)n1 [I-20, 2-(5-Fluoro-3-pyridyl)-N6-[2-(1H-indol-3-yl)ethyl]-N4-isopropyl-pyrimidine-4,6-diamine]
13 | < 0.5 | CC(C)n1cnc2c(NCCc3cn4ccccc4n3)nc(-c3cncc(F)c3)nc21 [I-22, 2-(5-Fluoro-3-pyridyl)-N-(2-imidazo[1,2-a]pyridin-2-ylethyl)-9-isopropyl-purin-6-amine]
14 | < 0.5 | CC(C)n1cnc2c(NCCc3c[nH]c4c(F)cc(F)cc34)nc(-c3cncc(F)c3)nc21 [I-23, N-[2-(5,7-Difluoro-1H-indol-3-yl)ethyl]-2-(5-fluoro-3-pyridyl)-9-isopropyl-purin-6-amine]
15 | > 1.5 | O=C(c1cnn2c(N[C@@H]3CCc4[nH]c5ccccc5c4C3)cc(-c3cncc(F)c3)nc12)N1CCOCC1 [I-24, [5-(5-Fluoro-3-pyridyl)-7-[[(3R)-2,3,4,9-tetrahydro-1H-carbazol-3-yl]amino]pyrazolo[1,5-a]pyrimidin-3-yl]-morpholino-methanone]
16 | > 1.5 | CON(C)C(=O)c1cnn2c(N[C@@H]3CCc4[nH]c5ccccc5c4C3)cc(-c3cncc(F)c3)nc12 [I-25, 5-(5-Fluoro-3-pyridyl)-N-methoxy-N-methyl-7-[[(3R)-2,3,4,9-tetrahydro-1H-carbazol-3-yl]amino]pyrazolo[1,5-a]pyrimidine-3-carboxamide]
17 | > 1.5 | CC(C)c1cnn2c(N[C@@H]3CCc4[nH]c5ccccc5c4C3)cc(-c3ccccc3)nc12 [I-26, (3R)—N-(3-isopropyl-5-phenyl-pyrazolo[1,5-a]pyrimidin-7-yl)-2,3,4,9-tetrahydro-1H-carbazol-3-amine]
18 | > 1.5 | CC(C)c1cnn2c(NC[C@@H](C)c3ccc(O)cc3)cc(-c3cncc(F)c3)nc12 [I-28a, 4-[(1S)-2-[[5-(5-fluoro-3-pyridyl)-3-isopropyl-pyrazolo[1,5-a]pyrimidin-7-yl]amino]-1-methyl-ethyl]phenol]
19 | > 1.5 | CN1CCN(C(=O)c2cnn3c(N[C@@H]4CCc5[nH]c6ccccc6c5C4)cc(-c4cncc(F)c4)nc23)CC1 [I-29, [5-(5-Fluoro-3-pyridyl)-7-[[(3R)-2,3,4,9-tetrahydro-1H-carbazol-3-yl]amino]pyrazolo[1,5-a]pyrimidin-3-yl]-(4-methylpiperazin-1-yl)methanone]
20 | > 1.5 | CC(C)c1cnn2c(NCCc3c[nH]c4ccccc34)ccnc12 [I-31, N-[2-(1H-indol-3-yl)ethyl]-3-isopropyl-pyrazolo[1,5-a]pyrimidin-7-amine]
21 | < 0.5 | CC(O)c1cnn2c(NCCc3c[nH]c4ccccc34)cc(-c3cncc(F)c3)nc12 (stereo not shown) [I-33, 1-[5-(5-Fluoro-3-pyridyl)-7-[2-(1H-indol-3-yl)ethylamino]pyrazolo[1,5-a]pyrimidin-3-yl]ethanol]
22 | > 1.5 | Cc1cnn2c(N[C@@H]3CCc4[nH]c5ccccc5c4C3)cc(-c3cncc(F)c3)nc12 [I-34, (3R)—N-[5-(5-Fluoro-3-pyridyl)-3-methyl-pyrazolo[1,5-a]pyrimidin-7-yl]-2,3,4,9-tetrahydro-1H-carbazol-3-amine]
23 | > 1.5 | Fc1cncc(-c2cc(N[C@@H]3CCc4[nH]c5ccccc5c4C3)n3ncc(C(F)(F)F)c3n2)c1 [I-35, (3R)—N-[5-(5-Fluoro-3-pyridyl)-3-(trifluoromethyl)pyrazolo[1,5-a]pyrimidin-7-yl]-2,3,4,9-tetrahydro-1H-carbazol-3-amine]
24 | > 1.5 | CC(C)c1cnn2c(N[C@@H]3CCc4[nH]c5ccccc5c4C3)cc(-c3cncc(C#N)c3)nc12 [I-38, 5-[3-Isopropyl-7-[[(3R)-2,3,4,9-tetrahydro-1H-carbazol-3-yl]amino]pyrazolo[1,5-a]pyrimidin-5-yl]pyridine-3-carbonitrile]
25 | > 1.5 | Fc1cncc(-c2cc(N[C@@H]3CCc4[nH]c5ccccc5c4C3)n3nccc3n2)c1 [I-41, (3R)—N-[5-(5-Fluoro-3-pyridyl)pyrazolo[1,5-a]pyrimidin-7-yl]-2,3,4,9-tetrahydro-1H-carbazol-3-amine]
26 | 0.5 to 1 | N#Cc1cncc(-c2cc(NCCc3c[nH]c4ccccc34)n3nccc3n2)c1 [I-43, 5-[7-[2-(1H-Indol-3-yl)ethylamino]pyrazolo[1,5-a]pyrimidin-5-yl]pyridine-3-carbonitrile]
27 | > 1.5 | CC(C)c1cnn2c(NC3Cc4ccccc4C3)cc(-c3cncc(F)c3)nc12 [I-44, 5-(5-Fluoro-3-pyridyl)-N-indan-2-yl-3-isopropyl-pyrazolo[1,5-a]pyrimidin-7-amine]
28 | < 0.5 | CC(C)n1cnc2c(NC3Cc4ccc(O)cc4C3)nc(-c3cncc(F)c3)nc21 (stereo not shown) [I-48, 2-[[2-(5-fluoro-3-pyridyl)-9-isopropyl-purin-6-yl]amino]indan-5-ol]
